Laboratory results taken from patent US8357634B2, “N-alkoxycarboxamides and their use as microbiocides” (Syngenta Crop Protection LLC, priority 2009, dated 2013).

Legend:
[1] = tested on: Mycosphaerella arachidis (Cercospora arachidicola); test: Example B-2: Action against Mycosphaerella arachidis, fungal growth assay; assay type: cell-based; settings: 0.002% active ingredient, PDB broth, 24° C., photometric after 6-7 days
Experimental: (§1) Action Against Mycosphaerella arachidis (Early Leaf Spot of Groundnut; Cercospora arachidicola [fanamorph])—Fungal Growth Assay Conidia of the fungus from cryogenic storage were directly mixed into nutrient broth (PDB potato dextrose broth). After placing a (DMSO) solution of the test compounds (0.002% active ingredient) into a microtiter plate (96-well format) the nutrient broth containing the fungal spores was added. The test plates were incubated at 24° C. and the inhibition of growth was measured photometrically after 6-7 days. The activity of a compound was expressed as fungal growth inhibition (0=no growth inhibition, ratings of 80% to 99% mean good to very good inhibition, 100%=complete inhibition).

Septoria tritici = test: Example B-3: Action against Septoria tritici, fungal growth assay; assay type: cell-based; settings: Zymoseptoria tritici; 0.002% active ingredient; PDB broth, 24° C., photometric after 72 hrs
Experimental: as §1, with “Septoria tritici—Fungal” for “Mycosphaerella arachidis (Early Leaf Spot of Groundnut; Cercospora arachidicola [fanamorph])—Fungal”, “determined” for “measured”, “72 hrs.” for “6-7 days.”

[2] = tested on: Erysiphe graminis f. sp. tritici; test: Example B-5: Action against Erysiphe graminis f. sp. tritici (wheat powdery mildew), wheat leaf segments; assay type: in vivo; settings: Blumeria graminis, foliar, 168 h, 0.02% active ingredient, 7 days after inoculation, read-out: preventive fungicidal activity (inhibition)
Experimental: Action Against Erysiphe graminis f. sp. tritici (Wheat Powdery Mildew) Wheat leaf segments were placed on agar in multiwell plates (24-well format) and sprayed with test solutions (0.02% active ingredient). After drying, the leaf disks were inoculated with a spore suspension of the fungus. After appropriate incubation the activity of a compound was assessed 7 days after inoculation as preventive fungicidal activity.

Pyrenophora teres [3] = test: Example B-8: Action against Pyrenophora teres (net blotch) on barley leaf segments; assay type: in vivo; settings: foliar, 96 h, 0.02% active ingredient, 4 days after inoculation, read-out: preventive fungicidal activity (inhibition)
Experimental: Action Against Pyrenophora teres (Net Blotch) on Barley Barley leaf segments were placed on agar in multiwell plates (24-well format) and sprayed with test solutions (0.02% active ingredient). After drying, the leaf disks were inoculated with a spore suspension of the fungus. After appropriate incubation the activity of a compound was assessed 4 days after inoculation as preventive fungicidal activity.

[4] = tested on: Blumeria graminis f. sp. tritici (Erysiphe graminis f. sp. tritici); test: Example B-9: Blumeria graminis f. sp. tritici / wheat / leaf disc preventive (comparative); assay type: in vivo; settings: 4 dpi
Experimental: Blumeria graminis f. sp. tritici (Erysiphe graminis f. sp. tritici)/Wheat/Leaf Disc Preventive (Powdery mildew on wheat) Wheat leaf segments were placed on agar in a multiwell plate (24-well format) and sprayed with test solutions. After drying, the leaf disks were inoculated with a spore suspension of the fungus. After appropriate incubation the activity of a compound was assessed 4 dpi (days after inoculation) as preventive fungicidal activity.

Puccinia recondita = test: Example B-10: Puccinia recondita / wheat / leaf disc preventative (comparative); assay type: in vivo; settings: 8 dpi
Experimental: Puccinia recondita/Wheat/Leaf Disc Preventative (Brown Rust) Wheat leaf segments were placed on agar in multiwell plates (24-well format) and sprayed with test solutions. After drying, the leaf disks were inoculated with a spore suspension of the fungus. After appropriate incubation the activity of a compound was assessed 8 dpi (days after inoculation) as preventive fungicidal activity.

[5] = tested on: Phaeosphaeria nodorum (Septoria nodorum); test: Example B-11: Phaeosphaeria nodorum / wheat / leaf disc preventative (comparative); assay type: in vivo; settings: 4 dpi
Experimental: Phaeosphaeria nodorum (Septoria nodorum)/Wheat/Leaf Disc Preventative (Glume Blotch) Wheat leaf segments were placed on agar in a multiwell plate (24-well format) and sprayed with test solutions. After drying, the leaf disks were inoculated with a spore suspension of the fungus. After appropriate incubation the activity of a compound was assessed 4 dpi (days after inoculation) as preventive fungicidal activity.

Pyrenophora teres [6] = test: Example B-12: Pyrenophora teres / barley / leaf disc preventive (comparative); assay type: in vivo; settings: 4 dpi
Experimental: Pyrenophora teres/Barley/Leaf Disc Preventive (Net Blotch) Barley leaf segments were placed on agar in a multiwell plate (24-well format) and sprayed with test solutions. After drying, the leaf disks were inoculated with a spore suspension of the fungus. After appropriate incubation the activity of a compound was assessed 4 dpi (days after inoculation) as preventive fungicidal activity.

[7] = tested on: Botryotinia fuckeliana (Botrytis cinerea); test: Example B-14: Botryotinia fuckeliana (Botrytis cinerea) / liquid culture (comparative); assay type: cell-based; settings: 24° C., photometric after 3-4 days, read-out: inhibition of growth
Experimental: Botryotinia fuckeliana (Botrytis cinerea)/Liquid Culture (Gray Mould) Conidia of the fungus from cryogenic storage were directly mixed into nutrient broth. After placing a (DMSO) solution of the test compounds into a microtiter plate (96-well format) the nutrient broth containing the fungal spores was added. The test plates were incubated at 24° C. and the inhibition of growth is determined photometrically after 3-4 days.

[8] = tested on: Mycosphaerella arachidis (Cercospora arachidicola); test: Example B-15: Mycosphaerella arachidis / liquid culture (comparative); assay type: cell-based; settings: 24° C., photometric after 6-7 days, read-out: inhibition of growth
Experimental: Mycosphaerella arachidis (Cercospora arachidicola)/Liquid Culture (Early Leaf Spot) Conidia of the fungus from cryogenic storage were directly mixed into nutrient broth (PDB potato dextrose broth). After placing a (DMSO) solution of the test compounds into a microtiter plate (96-well format) the nutrient broth containing the fungal spores was added. The test plates were incubated at 24° C. and the inhibition of growth is measured photometrically after 6-7 days.

[9] = tested on: Monopraphella nivalis (Microdochium nivale); test: Example B-18: Monographella nivalis (Microdochium nivale) / liquid culture (comparative); assay type: cell-based; settings: 24° C., photometric after 4-6 days, read-out: inhibition of growth
Experimental: Monopraphella nivalis (Microdochium nivale)/Liquid Culture (Foot Rot Cereals Conidia of the fungus from cryogenic storage were directly mixed into nutrient broth (PDB potato dextrose broth). After placing a (DMSO) solution of the test compounds into a microtiter plate (96-well format) the nutrient broth containing the fungal spores was added. The test plates were incubated at 24° C. and the inhibition of growth is measured photometrically after 4-6 days.

CON(C(=O)c1cn(C)nc1C(F)F)C(C)c1ccc(Cl)cc1Cl (stereo not shown) [Compound 1.023]
inhibition at 0.002 % strength [1]: ≥ 80% | inhibition at 0.002 % strength (Septoria tritici): ≥ 80% | inhibition at 0.02 % strength [2]: ≥ 80% | inhibition at 0.02 % strength (Pyrenophora teres [3]): ≥ 80% | preventive fungicidal activity ([4]; 20 ppm): 90 | preventive fungicidal activity ([4]; 60 ppm): 100 | preventive fungicidal activity ([4]; 200 ppm): 100 | preventive fungicidal activity (Puccinia recondita; 20 ppm): 0 | preventive fungicidal activity (Puccinia recondita; 60 ppm): 50 | preventive fungicidal activity (Puccinia recondita; 200 ppm): 70 | preventive fungicidal activity ([5]; 20 ppm): 70 | preventive fungicidal activity ([5]; 60 ppm): 90 | preventive fungicidal activity ([5]; 200 ppm): 90 | preventive fungicidal activity (Pyrenophora teres [6]; 20 ppm): 100 | preventive fungicidal activity (Pyrenophora teres [6]; 60 ppm): 100 | preventive fungicidal activity (Pyrenophora teres [6]; 200 ppm): 100 | inhibition at 20 ppm ([7]; 20 ppm): 20% | inhibition at 60 ppm ([7]; 60 ppm): 100% | inhibition at 200 ppm ([7]; 200 ppm): 100% | inhibition at 6 ppm ([8]; 6 ppm): 100% | inhibition at 20 ppm ([8]; 20 ppm): 100% | inhibition at 60 ppm ([8]; 60 ppm): 100% | inhibition at 6 ppm ([9]; 6 ppm): 0% | inhibition at 20 ppm ([9]; 20 ppm): 0% | inhibition at 60 ppm ([9]; 60 ppm): 50%
